Assay results published in paper PMC3546728, “Bacterial Over-Expression and Purification of the 3′phosphoadenosine 5′phosphosulfate (PAPS) Reductase Domain of Human FAD Synthase: Functional Characterization and Homology Modeling” (International Journal of Molecular Sciences, 2012).

Experiments:
6-His-Δ1-328-hFADS [1] = target: T1, 6-His-Δ1-328-hFADS (Homo sapiens, UniProt Q8NFF5); assay: absorbance spectrum of purified holoprotein; HPLC of flavin released by acid; format: binding; conditions: co-purified, tightly bound FAD, 40 mM Hepes/Na, 5 mM β-mercaptoethanol, pH 7.4
T1 construct: gene FLAD1; C-terminal PAPS reductase domain, residues 329-587; vector pH6EX3; E. coli Rosetta (DE3); theoretical 31499 Da, ~28 kDa on SDS-PAGE
T1 sequence (Q8NFF5 329-587, stated change not applied): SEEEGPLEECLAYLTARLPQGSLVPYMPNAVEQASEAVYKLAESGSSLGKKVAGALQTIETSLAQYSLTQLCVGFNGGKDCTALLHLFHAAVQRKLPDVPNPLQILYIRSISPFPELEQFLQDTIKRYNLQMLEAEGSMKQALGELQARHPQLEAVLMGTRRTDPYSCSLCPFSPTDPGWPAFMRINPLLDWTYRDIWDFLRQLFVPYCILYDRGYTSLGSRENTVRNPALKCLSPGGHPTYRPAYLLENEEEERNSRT

6-His-Δ1-328-hFADS [2] = target: T1, 6-His-Δ1-328-hFADS; assay: fluorimetric FAD synthesis rate; format: biochemical; conditions: competitive; data not shown

Structure (SMILES) | FAD/protein monomer ratio (6-His-Δ1-328-hFADS [1]) | fluorimetric FAD synthesis rate (6-His-Δ1-328-hFADS [2])
Cc1cc2nc3c(=O)[nH]c(=O)nc-3n(C[C@H](O)[C@H](O)[C@H](O)COP(=O)(O)OP(=O)(O)OC[C@H]3O[C@@H](n4cnc5c(N)ncnc54)[C@H](O)[C@@H]3O)c2cc1C [FAD] | demonstrates that the bound cofactor is FAD with a FAD/protein monomer ratio | –
Nc1nc2c(ncn2[C@@H]2O[C@H](COP(=O)(O)OP(=O)(O)O)[C@@H](O)[C@H]2O)c(=O)[nH]1 [GDP] | – | no significant changes were found in competitive inhibition by GDP (data not shown)
